Key:
[1] = target: T1, PI3Kβ (p110β/p85α) (Homo sapiens, UniProt P42338); assay: PI3K biochemical enzyme assay (Adapta universal kinase assay), p110 beta/p85 alpha; details: for IC50: Table 2, PI3k biochemical assays, read-out: p110β/p85α IC50
T1 construct: purchased Invitrogen
Protocol: (§1) This example describes a method of obtaining in vitro activity data concerning the effect of compounds of on various PI3K isoforms. The effect of compounds on the kinase activity of Class I PI3Ks was measured at Invitrogen by using the Adapta® universal kinase assay. It was a homogenous, fluorescent based immunoassay for the detection of ADP produced by the kinase reaction. This assay can be divided into two phases: a kinase reaction phase, and an ADP detection phase. In the kinase reaction phase, all components required for the kinase reaction were added to the well, and the reaction was allowed to incubate for 60 minutes. After the reaction, a detection solution consisting of a europium labeled anti-ADP antibody, an Alexa Fluor® 647 labeled ADP tracer, and EDTA (to stop the kinase reaction) was added to the assay well. ADP formed by the kinase reaction (in the absence of an inhibitor) displaced the Alexa Fluor® 647 labeled ADP tracer from the antibody, resulting in a decrease in the TR-FRET signal.
(§2) ADP formation was determined by calculating the emission ratio from the assay well. The emission ratio was calculated by dividing the intensity of the tracer (acceptor) emission by the intensity of the Eu (donor) emission at 615 nm as shown in the equation below.
(§3) The Test Compounds were screened in 1% DMSO (final) in the well. All Substrate/Kinase Mixtures were diluted to a 2× working concentration in the appropriate Kinase Buffer as described below for the individual kinase:
The 2× p 110beta/p85 alpha/PIP2:PS mixture was prepared in 50 mM HEPES pH 7.5, 100 mM NaCl, 0.03% CHAPS, 1 mM EGTA, 3 mM mgCl2, and 2 mM DTT. The final 10 μL Kinase Reaction consisted of 35.4 ng p110 beta/p85 alpha and 50 μM PIP2:PS. After the 1 hour Kinase Reaction incubation, 5 μL of Detection Mix was added.
(§4) The Detection mix consisted of EDTA (30 mM), Eu-anti-ADP antibody (30 nM) and ADP tracer. All ATP Solutions were diluted to a 4× working concentration in water and used at the Km apparent concentrations for each individual kinase.

[2] = target: T2, PI3Kδ (p110δ/p85α) (Homo sapiens, UniProt O00329); assay: PI3K biochemical enzyme assay (Adapta universal kinase assay), p110 delta/p85 alpha; details: for inhibition at 0.1 µM / inhibition at 1 µM / inhibition at 10 µM: read-out: PI3Kδ % inhib; for IC50: Table 2, PI3k biochemical assays, read-out: p110δ/p85α IC50
T2 construct: purchased Invitrogen
T2 sequence (O00329 whole entry): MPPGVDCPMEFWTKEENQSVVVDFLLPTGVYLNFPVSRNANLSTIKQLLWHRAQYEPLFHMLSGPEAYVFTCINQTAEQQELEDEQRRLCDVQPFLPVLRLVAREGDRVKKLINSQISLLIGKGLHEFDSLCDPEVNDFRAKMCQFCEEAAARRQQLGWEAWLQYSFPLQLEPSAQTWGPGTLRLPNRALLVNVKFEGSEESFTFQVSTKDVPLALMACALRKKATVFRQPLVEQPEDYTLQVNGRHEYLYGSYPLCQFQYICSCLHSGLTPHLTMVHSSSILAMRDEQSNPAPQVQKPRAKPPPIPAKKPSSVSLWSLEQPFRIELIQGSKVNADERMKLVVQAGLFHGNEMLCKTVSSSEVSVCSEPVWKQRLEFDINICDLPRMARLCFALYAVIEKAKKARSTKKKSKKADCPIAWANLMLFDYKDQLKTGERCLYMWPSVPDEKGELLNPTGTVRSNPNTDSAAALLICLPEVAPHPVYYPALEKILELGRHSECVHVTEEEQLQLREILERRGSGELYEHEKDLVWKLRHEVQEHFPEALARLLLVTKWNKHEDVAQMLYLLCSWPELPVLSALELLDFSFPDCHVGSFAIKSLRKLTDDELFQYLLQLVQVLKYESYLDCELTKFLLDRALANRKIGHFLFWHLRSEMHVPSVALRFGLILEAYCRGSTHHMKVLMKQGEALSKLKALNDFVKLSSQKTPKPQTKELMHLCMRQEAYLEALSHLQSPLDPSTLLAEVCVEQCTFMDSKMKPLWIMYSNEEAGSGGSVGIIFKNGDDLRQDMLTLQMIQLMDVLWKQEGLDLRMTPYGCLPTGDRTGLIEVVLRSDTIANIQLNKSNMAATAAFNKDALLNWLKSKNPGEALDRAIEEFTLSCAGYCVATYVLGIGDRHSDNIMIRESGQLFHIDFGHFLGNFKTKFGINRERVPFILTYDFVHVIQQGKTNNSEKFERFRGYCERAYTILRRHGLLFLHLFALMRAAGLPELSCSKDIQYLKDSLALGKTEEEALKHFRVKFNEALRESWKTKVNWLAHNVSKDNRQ
T2 sequence (P27986 whole entry partner): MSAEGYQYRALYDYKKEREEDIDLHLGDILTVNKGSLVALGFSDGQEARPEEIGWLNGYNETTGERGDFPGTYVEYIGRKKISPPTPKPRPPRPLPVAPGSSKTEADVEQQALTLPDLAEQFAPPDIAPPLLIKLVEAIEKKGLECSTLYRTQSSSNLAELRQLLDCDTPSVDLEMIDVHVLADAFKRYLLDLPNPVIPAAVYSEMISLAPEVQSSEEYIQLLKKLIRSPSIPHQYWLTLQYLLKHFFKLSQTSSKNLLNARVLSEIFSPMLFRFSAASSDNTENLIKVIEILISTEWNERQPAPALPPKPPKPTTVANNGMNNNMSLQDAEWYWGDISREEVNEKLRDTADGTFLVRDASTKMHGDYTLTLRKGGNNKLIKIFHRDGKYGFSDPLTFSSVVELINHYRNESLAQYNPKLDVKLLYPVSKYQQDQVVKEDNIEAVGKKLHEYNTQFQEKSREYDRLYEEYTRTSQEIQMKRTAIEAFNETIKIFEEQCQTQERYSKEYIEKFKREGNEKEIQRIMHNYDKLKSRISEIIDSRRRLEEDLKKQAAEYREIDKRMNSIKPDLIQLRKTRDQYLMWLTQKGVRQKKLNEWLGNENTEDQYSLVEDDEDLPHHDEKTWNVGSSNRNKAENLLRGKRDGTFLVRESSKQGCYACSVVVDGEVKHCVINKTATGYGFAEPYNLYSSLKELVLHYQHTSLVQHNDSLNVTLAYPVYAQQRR
Protocol: as §1, §2, §3
The 2× p110 delta/p85 alpha/PIP2:PS mixture was prepared in 50 mM HEPES pH 7.5, 100 mM NaCl, 0.03% CHAPS, 3 mM mgCl2, 1 mM EGTA. The final 10 μL Kinase Reaction consisted of 0.35-2.6 ng p110 delta/p85 alpha and 50 μM PIP2:PS in 32.5 mM HEPES pH 7.5, 50 mM NaCl, 0.015% CHAPS, 1.5 mM mgCl2, 0.5 mM EGTA. After the 1 hour Kinase Reaction incubation, […] of Detection Mix was added.
as §4

T1 sequence (P42338 whole entry): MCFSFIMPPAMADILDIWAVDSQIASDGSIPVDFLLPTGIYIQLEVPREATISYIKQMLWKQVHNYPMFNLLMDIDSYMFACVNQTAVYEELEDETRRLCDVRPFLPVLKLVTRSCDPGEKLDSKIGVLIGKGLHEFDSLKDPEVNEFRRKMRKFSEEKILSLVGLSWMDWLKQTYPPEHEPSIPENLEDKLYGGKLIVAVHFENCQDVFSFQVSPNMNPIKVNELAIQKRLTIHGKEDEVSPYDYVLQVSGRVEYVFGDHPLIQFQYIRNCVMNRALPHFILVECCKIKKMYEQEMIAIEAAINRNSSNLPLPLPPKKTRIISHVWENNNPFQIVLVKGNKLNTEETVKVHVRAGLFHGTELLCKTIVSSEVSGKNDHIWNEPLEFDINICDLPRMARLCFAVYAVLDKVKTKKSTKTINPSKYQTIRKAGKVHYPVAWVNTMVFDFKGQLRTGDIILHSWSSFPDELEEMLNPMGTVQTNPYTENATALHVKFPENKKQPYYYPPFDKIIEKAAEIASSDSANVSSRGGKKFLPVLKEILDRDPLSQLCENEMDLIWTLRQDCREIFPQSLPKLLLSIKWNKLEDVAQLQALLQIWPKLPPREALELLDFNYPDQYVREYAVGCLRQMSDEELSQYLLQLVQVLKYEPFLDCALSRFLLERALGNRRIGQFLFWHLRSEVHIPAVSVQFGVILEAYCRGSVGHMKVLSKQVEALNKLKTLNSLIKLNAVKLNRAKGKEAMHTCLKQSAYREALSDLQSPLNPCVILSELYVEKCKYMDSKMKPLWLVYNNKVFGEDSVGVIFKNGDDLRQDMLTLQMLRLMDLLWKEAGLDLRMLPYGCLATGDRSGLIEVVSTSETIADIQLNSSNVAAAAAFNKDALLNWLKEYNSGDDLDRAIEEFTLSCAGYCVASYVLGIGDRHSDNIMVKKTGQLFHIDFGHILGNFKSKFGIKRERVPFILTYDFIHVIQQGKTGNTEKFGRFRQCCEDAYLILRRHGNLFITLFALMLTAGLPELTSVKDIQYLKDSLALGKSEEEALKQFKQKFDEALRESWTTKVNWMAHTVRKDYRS
T1 sequence (P27986 whole entry partner): as the sequence (P27986 whole entry partner) above

Structure (SMILES) | inhibition at 10 µM ([1]; read-out: PI3Kβ % inhib) [%] | IC50 [1] [nM] | inhibition at 0.1 µM [2] [%] | inhibition at 1 µM [2] [%] | inhibition at 10 µM [2] [%] | IC50 [2] [nM] | inhibition at 1 µM ([1]; 1 μM, read-out: PI3Kβ % inhib) [%]
CC(Nc1ncnc2[nH]cnc12)c1nc2ccccc2nc1-c1cc(F)cc(F)c1 (stereo not drawn) [Compound Q2, N-{1-[3-(3,5-difluorophenyl)quinoxalin-2-yl]ethyl}-9H-purin-6-amine] | 8 | > 10000 | 20 | 82 | 100 | 58 | –
Cc1cccc(-c2nc3ccccc3nc2C(C)Nc2ncnc3[nH]cnc23)c1 (stereo not drawn) [Compound Q3] | 25 | > 10000 | 48 | 86 | 100 | 36 | –
CC(Nc1ncnc2[nH]cnc12)c1nc2ccccc2nc1-c1ccccc1 (stereo not drawn) [Compound Q1] | 72 | > 10000 | 74 | 85 | 100 | 14 | –
CCC(Nc1ncnc2[nH]cnc12)c1nc2ccccc2nc1-c1ccccc1 (stereo not drawn) [Compound Q12] | 75 | > 10000 | 71 | 83 | 100 | 17 | –

Further lines, results first:

inhibition at 10 µM ([1]; read-out: PI3Kβ % inhib) [%] | IC50 [1] [nM] | inhibition at 0.1 µM [2] [%] | inhibition at 1 µM [2] [%] | inhibition at 10 µM [2] [%] | IC50 [2] [nM] | inhibition at 1 µM ([1]; 1 μM, read-out: PI3Kβ % inhib) [%] | Structure (SMILES)
60 | > 10000 | 72 | 86 | 100 | 37 | – | CCC(Nc1ncnc2[nH]cnc12)c1nc2cccc(F)c2nc1-c1ccccc1 (stereo not drawn) [Compound Q9]
77 | 1130 | 77 | 86 | 100 | 2 | – | Cc1cccc2nc(C(C)Nc3nc(N)nc4[nH]cnc34)c(-c3ccccc3)nc12 (stereo not drawn) [Compound Q4]
85 | 459 | – | 69 | 99 | 2 | 23 | Cc1cccc2nc(C(C)Nc3nc(N)nc4[nH]cnc34)c(-c3ccc(F)cc3)nc12 (stereo not drawn) [Compound Q5]

From patent US20140235643A1, “NOVEL QUINOXALINE INHIBITORS OF PI3K” (GILEAD CALISTOGA LLC, priority 2011, published 2014)
